Results on 51 compounds are retold here after PubChem BioAssay AID179 (DTP/NCI, 2004).

The experiment deals with CEM cells HIV-1 protection, formazan growth assay. Kind of experiment: NCI AIDS Antiviral Assay. Conditions: for IC50: measured here: growth of uninfected CEM cells. In a few lines: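 Steps: treat uninfected and HIV-1-infected human CEM cells at five drug levels; quantify growth by soluble formazan; retest any compound reaching 50% protection; classify actives from the retest.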

The structures appear in SMILES notation. Active and inactive are the calls of the source.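 How the source made its calls: active means compounds giving half or more protection of infected cells from virus-caused growth loss, again on retest; inactive means the rest.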 Some results are limits rather than exact numbers.

On to `O=C(O)c1ccccc1-c1c2ccc(=O)cc-2oc2cc(O)ccc12`, for which the EC50 (commonly the midpoint of the concentration-response curve) is > 316 µM and the IC50 (in general, the concentration at which inhibition is half-maximal) was 58.9 µM.

Turning to `CN(C)c1ccc(C=NCC2CCCN3CCCCC23)cc1` (stereo unspecified), the EC50 is > 100 µM and the IC50 is > 100 µM. `CCOC(=O)N1Cc2ccoc2C1`: the EC50 was > 75.9 µM and the IC50 was > 75.9 µM. `CC(C)(C)OC(=O)N(CCCCNC(=O)C(F)(F)F)CCCNC(=O)C(F)(F)F`: the EC50 is > 200 µM and the IC50 is > 200 µM. For the compound `O=C(O)c1ccc(CSc2ccc([N+](=O)[O-])cc2)c([N+](=O)[O-])c1`, the EC50 was > 204 µM and the IC50 was > 100 µM.

Regarding `S=C1SC2(CCCC2)NC2=C1CCC2`, the EC50 was > 126 µM and the IC50 is > 126 µM.

As to `CC(=O)N1C(=O)C(=O)c2ccccc21`, the EC50 is > 200 µM and the IC50 was > 200 µM. Turning to `CCCCCCCCCC(=O)OCC1OC(n2cc(F)c(=O)[nH]c2=O)C(N)C(OC(=O)CCCCCCCCC)C1O` (stereo unspecified), the EC50 is > 31.6 µM and the IC50 is > 31.6 µM. As for `COc1ccc(NC(=O)CC/C(CC(=O)c2ccco2)=N/NC(=O)C(N)=O)cc1`, the EC50 was > 25.1 µM and the IC50 is > 25.1 µM. Turning to `NC1=NC(c2ccccc2)C2=C(N1)C(=O)N(Cc1ccccc1)C2` (stereo unspecified), the EC50 was > 204 µM and the IC50 came to 72.4 µM. For `CCOC(=O)C1=NN(c2ccc(Cl)cc2)C2=CC(C)=NN(C)C(=S)N21`, the EC50 is > 200 µM and the IC50 was > 200 µM. Regarding `COC(=O)C(C)(C)C(OP1(=S)OCCN1C)=C(C)C` (stereo unspecified), the EC50 is > 117 µM and the IC50 is > 117 µM. Consider `O=C(/C=C/c1cccs1)c1ccsc1`, for which the EC50 was > 200 µM and the IC50 was 11.7 µM. Consider `CC1=C2CCCC2C/C(=N/Nc2ccc([N+](=O)[O-])cc2[N+](=O)[O-])CC1` (stereo unspecified), for which the outcome was inactive. Take `CCCCCCCCCCc1c2nc(c(CCCCCCCCCC)c3ccc([nH]3)c(CCCCCCCCCC)c3ccc([nH]3)c(CCCCCCCCCC)c3nc1C=C3)C=C2`: the EC50 is > 100 µM and the IC50 was > 100 µM. On to `CC(C)N(c1cc2c(cc1F)c(=O)c(C(=O)O)cn2-c1ccc(N2CCN(C)CC2)cn1)C(C)C`, for which the EC50 is > 200 µM and the IC50 is > 200 µM.

Turning to `OC1(c2ccccc2)c2ccccc2NC2=NCCN21` (stereo unspecified), the EC50 was > 200 µM and the IC50 stood at 110 µM. The corresponding values for `Cc1ccc2nc(NC(=S)NCCCCNC(=S)Nc3ccc4cc(C)ccc4n3)ccc2c1` are > 10.7 µM and > 10.7 µM. `CCOC(=O)C(C(=N)C(=N)C(C(=O)O)C(=O)OCC)C(=O)O` (stereo unspecified): the result was inactive.

For `CC1=NN(c2ccccc2)C(=O)C1N=Nc1ccc(S(=O)(=O)Nc2nnc(C)s2)cc1` (stereo unspecified), the result was inactive. The same measure, in the same setting: the same measure for `OC(c1ccccc1)c1c(-c2ccccc2)oc(-c2ccccc2)c1C(O)c1ccccc1` (stereo unspecified): “inactive”. In the case of `CCOC1=C(c2ccccc2)Oc2cccnc2-n2cccc21`, the EC50 is > 200 µM and the IC50 came out at 138 µM. Consider `CC(C)(C)[Si](C)(C)OCC1OC(n2ccc(=O)[nH]c2=O)C(O[Si](C)(C)C(C)(C)C)C1(CC#N)Sc1ccccc1` (stereo unspecified), for which the EC50 is > 200 µM and the IC50 came to 10.7 µM. The corresponding values for `Cc1ccc2c(c1)nc1n2C(c2c(F)cccc2F)SC1` (stereo unspecified) are > 200 µM and 33.1 µM. With `C[Si](C)(OCCS(=O)(=O)O)C1(Cc2cccc3ccccc23)S(=O)(=O)OCCOS1(=O)=O`, the EC50 was > 200 µM and the IC50 is 107 µM. The corresponding values for `Cc1cccc2c(=O)c([Se]c3coc4c(C)cccc4c3=O)coc12` are > 33.1 µM and > 33.1 µM. The corresponding values for `CCCCCCCCCCCCCCCCc1c(C(=O)OC)[nH]c(=S)[nH]c1=O` are > 3.55 µM and > 3.55 µM. With `COc1ccc(C2=C(OC(C)=O)c3cccn3-c3ccccc3S2)cc1`, the EC50 was > 200 µM and the IC50 came out at 1.32 µM. The corresponding values for `CC(C)(O)CCC(=O)[C@](C)(O)[C@H]1[C@H](O)C[C@@]2(C)[C@@H]3CC=C4[C@@H](C[C@@H](O)[C@@H](O)C4(C)C)[C@]3(C)C(=O)C[C@]12C` are > 200 µM and > 200 µM. The like results for `CN1CCN(C(=O)c2cccc3cccc(C(=O)O)c23)CC1` were, in that order, > 832 µM and 724 µM.

With `C=C(c1cccn1S(=O)(=O)c1ccccc1)c1cccn1S(=O)(=O)c1ccccc1`, the EC50 is > 100 µM and the IC50 stood at 25.7 µM. The like results for `COC1/C=C/OC2(C)Oc3c(C)c(O)c4c(O)c(c(/C=N/N5C(C)CN(Cc6ccc(NC(C)=O)cc6)CC5C)c(O)c4c3C2=O)NC(=O)C(C)=C/C=C/C(C)C(O)C(C)C(O)C(C)C(OC(C)=O)C1C` (stereo unspecified) were, in that order, > 200 µM and 9.12 µM. For `CCCCNC(=O)OCCN=c1c2ccccc2ccc2ccccc12`, the EC50 is > 200 µM and the IC50 was > 200 µM.

With `COc1ccc(-c2cn3c(nc4ccccc43)c(C)n2)cc1`, the EC50 was > 200 µM and the IC50 was > 200 µM.

Regarding `CN(C)c1cccc(/C=C(\C#N)c2ccccc2)c1`, the EC50 was > 200 µM and the IC50 was determined as 0.339 µM. As to `CCc1ccc(/C(C#N)=C/c2cccc3ccccc23)cc1`, the EC50 is > 200 µM and the IC50 amounted to 26.9 µM.

As for `c1ccc(CN2COc3c(c4c(c5ccccc35)OCN(Cc3ccccc3)C4)C2)cc1`, the EC50 is > 61.7 µM and the IC50 is > 61.7 µM. As to `O=C1C2C=CC(n3[nH]c(=O)n(Cc4ccccc4)c3=O)CC2C(=O)N1c1ccc(Br)cc1` (stereo unspecified), the EC50 is > 501 µM and the IC50 stood at 135 µM. For `Fc1ccc(N=C2C=CC(=Nc3ccc(F)cc3)c3ccccc32)cc1`, the result was inactive. In the case of `COP(=O)(OC)/C(=C\c1cn(C(c2ccccc2)(c2ccccc2)c2ccccc2)cn1)NC(C)=O`, the EC50 was > 200 µM and the IC50 was 83.2 µM. The like results for `Cc1nc2sc(C)c(C)c2c(=O)o1` were, in that order, > 200 µM and 95.5 µM. On to `Cc1cc([N+](=O)[O-])ccc1Sc1c2ccccc2nc2ccccc12`, for which the EC50 was > 20.9 µM and the IC50 is > 20.9 µM. Turning to `NC(Cc1ccccc1)c1nccs1` (stereo unspecified), the EC50 was > 200 µM and the IC50 was > 200 µM.

`O=C(NCCN1CCCC1)c1cn2c(ccc3sc4ccccc4c(=O)c32)n1`: the EC50 is > 200 µM and the IC50 is 1.26 µM.

As to `c1ccc(CSCSCc2ccccc2)cc1`, the outcome was inactive.

`N#CC(C#N)=C1/C(=C/C=C/C=C/C=C/c2ccc(N3CCCCC3)s2)S(=O)(=O)c2ccccc21`: the EC50 is > 200 µM and the IC50 was found to be 93.3 µM. The corresponding values for `O=C1c2cccc(O)c2C(=O)c2cccc(O)c21` are > 4.37 µM and > 4.37 µM. The corresponding values for `O=C1CC2CCC(C1)S2=O` (stereo unspecified) are > 200 µM and > 200 µM.

For `CC(=O)NC(C)(C)C1CC=C(C)/C(=N\O)C1` (stereo unspecified), the EC50 is > 1120 µM and the IC50 is 776 µM. `CC(=O)Nc1ccc(C2C(C(=O)Nc3ccccc3)=C(C)NC(C)=C2C(=O)Nc2ccccc2)cc1`: the EC50 was > 74.1 µM and the IC50 was > 74.1 µM. As to `COc1cc2cc(OC(C)=O)c3cc4c(cc3c2c(OC)c1OC)OCO4`, the EC50 was > 676 µM and the IC50 is > 676 µM.
